Measurements as given in patent US5262520A, “Peptides and antibodies that inhibit integrin-ligand binding” (The Scripps Research Institute, priority 1990, dated 1993).
Where no end group is shown, it is not given here.

Legend:
[1] = target: T1, ^125 I-fibrinogen with immobilized p1 peptide (Homo sapiens, UniProt P08514); assay: Inhibition of 125I-fibrinogen binding to immobilized p1 peptide; conditions: for inhibition of fibrinogen binding to immobilized p1 (in words): text summary of Table 7
T1 construct: for GPIIb from residue 296; made in house; no expression host
Method: Polypeptides p1, p1', and controls were immobilized on 96-well Immulon-2 microtiter plates (Dynatech Laboratories, VA). The peptides were added to the plates and maintained at 4 C for 24 hours after which the plates were washed with Hepes-Tyrode's buffer (pH 7.4) containing Tween-20. The plates were post-coated with 3% BSA for 1 hr. at 37° C. and then washed again. ^125 I-fibrinogen (50 μL at 50 nM) was allowed to bind to the peptide-coated wells for 24 hours at 22° C. which were then extensively washed and counted for bound radioactivity.
Cation dependence of binding was established in the presence of EDTA (5 mM). Two gamma-chain peptides of fibrinogen (HHLGGAKQAGDV and KYGGHHLGGAHQAGDV) inhibited the interaction of fibrinogen with immobilized pl. […] These observations are consistent with the hypothesis that RGD gamma-chain peptides interact with the same sites in GPIIb-IIIa.

GPIIb = target: T2, GPIIb (Homo sapiens, UniProt P08514); assay: Chemical crosslinking of 125I-K16 to GPIIb on platelets; format: binding
T2 construct: endogenous in cells; host or cells: washed human platelets from fresh blood
Source text: Platelets were isolated from fresh human blood collected into acid/citrate/dextrose by differential centrifugation followed by gel filtration on Sepharose 2B in divalent ion-free Tyrode's buffer, pH 7.3, containing 0.1% bovine serum albumin. See, Marguerie et al., J. Biol. Chem., 225:154-161 (1980).
Platelet binding of K16 followed the protocols previously described for measuring platelet interactions with adhesive proteins and with this and other peptides. See, Ginsberg et al., J. Biol. Chem., 260:3931-3936 (1985); Lam et al., Fed. Proc. Fed. Am. Soc. Exp. Biol., 44:1126 (1985); and Marguerie et al., supra. Briefly, platelets were suspended at 4×10^8 /ml in divalent ion-free Tyrode's albumin buffer. Unless otherwise specified, Ca^2+ was added to a final concentration of 1 mM. The platelet stimulus used was 0.5 unit/ml alpha-thrombin. In assays in which fibrinogen and thrombin were present, 30 nM D-phenylalanyl-L-prolyl-arginine ketone (Calbiochem, La Jolla, Ca.) was added to the platelet suspension 5 minutes after addition of thrombin and 5 minutes before addition of fibrinogen. The radiolabeled peptide was then added to […] stimulated or nonstimulated platelets at a concentration of 30 μM, and binding proceeded for 45 min at 22° C. The selected cross-linking agent was then added. The cross-linking agent used in this study, bis(sulfosuccinimidyl) suberate (BS^3), purchased from Pierce Chemical Co. was dissolved in PBS immediately prior to use and admixed with the platelets to a final concentration of 0.2 mM. The cross-linking reactions were terminated after 10 min at 22° C. by addition of 10 mM Tris, pH 7.0.
The cell-bound ligand was recovered by centrifugation through 20% sucrose, and the cells were extracted in PBS containing 1% Nonidet P40 and 10 mM N-ethylmaleimide (Sigma). Extrated proteins were precipitated with 10% trichloroacetic acid, and the pellet obtained after centriguation was washed three times with cold 85% ethanol. The cross-linked samples were analyzed by electrophoresis (SDS-PAGE) on polyacrylamide vertical slab gels in the buffer system of Laemmli, Nature, 227 […] (1970). For disulfide bond reduction, the samples were treated with 5% 2-mercaptoethanol. Gels were dried and autoradiograms were developed with Kodak X-Omat AR films. Molecular weights were estimated on the basis of electrophoretic mobility relative to standards obtained from Diversified Biotech (MA).
Cross-linked samples were immunoprecipitated using a monoclonal antibody designated PMI-1, which recognizes the heavy chain of GPIIb. Loftus et al., Proc. Natl. Acad. Sci. USA. 84:7114 (1987). […]

[2] = GPIIb:K16 complex, gel under reducing conditions, excised and counted

O=C(O)CN(CCN(CC(=O)O)CC(=O)O)CC(=O)O [EDTA]
% Inhibition of ^125 I-fibrinogen binding to p1 ([1]; inhibitor 5000 μM): 90 ± 8%

N=C(N)NCCC[C@H](N)C(=O)NCC(=O)N[C@@H](CC(=O)O)C(=O)N[C@@H](CO)C(=O)O [RGDS]
inhibition at 200 µM ([1]; inhibitor 200 μM): 52 ± 15%

Albumin
% Inhibition of ^125 I-fibrinogen binding to p1 ([1]; inhibitor 2 μM): 12 ± 4% | inhibition of fibrinogen binding to immobilized p1 (in words) [1]: minimal inhibition

Fibrinogen
% Inhibition of ^125 I-fibrinogen binding to p1 ([1]; inhibitor 2 μM): 82 ± 1.2%

GRGESP [GRGESP]
inhibition at 200 µM ([1]; inhibitor 200 μM): 16 ± 7%

HHLGGAKQAGDV [HHLGGAKQAGDV]
inhibition at 200 µM ([1]; inhibitor 200 μM): 57 ± 11%

KYGGHHLGGAKQAGDV [K16, peptide derived from fibrinogen gamma chain]
% Inhibition of ^125 I-fibrinogen binding to p1 ([1]; inhibitor 200 μM): 54 ± 12% | inhibition of fibrinogen binding to immobilized p1 (in words) [1]: inhibited | crosslinking of the radiolabeled peptide to the cells (GPIIb; 50-fold excess of nonlabeled K16, thrombin-stimulated platelets, FIG. 2A): abolished the crosslinking | radioactivity in the position of light chain of GPIIb (GPIIb; [2]): < 2% | radioactivity in the position of the heavy chain of GPIIb (GPIIb; [2]): 98% | increase of K16 crosslinking to GPIIb (GPIIb; thrombin stimulation relative to nonactivated platelets, 4 experiments): 12 fold

YVTAGRGDSPASSK [YVTAGRGDSPASSK]
inhibition at 200 µM ([1]; inhibitor 200 μM): 61 ± 16%
